What was measured:
Assay type in all cases: in vivo
Annual bluegrass [1] = assay: Pre-emergence herbicide test; conditions: read-out: % plant inhibition (Anbg); for inhibition at 1120 g/ha: 1.12 kg/ha; for inhibition at 11210 g/ha: 11.21 kg/ha
Procedure: (§1) The tests for pre-emergence herbicide activity are conducted as follows:
(§2) Topsoil is placed in an aluminum pan and compacted to a depth of 0.95 to 1.27 cm from the top of the pan. On the top of the soil is placed a predetermined number of seeds of each of several monocotyledonous and dicotyledonous annual plant species and/or vegetative propagules of various perennial plant species. A known amount of the active ingredient dissolved or suspended in an organic solvent, e.g., acetone, or water as carrier is then applied directly to the seed bed, which is then covered with a layer of untreated topsoil to level fill the pan. After treatment, the pans are moved to a greenhouse bench where they are watered from below as needed to give adequate moisture for germination and growth.
(§3) Approximately 10-14 days (usually 11 days) after seeding and treating, the pans are observed and the results (% inhibition) are recorded.
(§4) Tables 7 and 7A below summarize the results of the pre-emergence herbicidal activity tests of compounds of this invention in weeds. The herbicidal rating shown in these tables is the percent inhibition of each plant species. The plant species usually regarded as weeds which are utilized in one set of tests, the data for which are shown in the tables, are identified by letter headings above the columns in accordance with the following legend: […]

Barnyardgrass [2] = assay: Pre-emergence herbicide test; conditions: Echinochloa crus-galli, read-out: % plant inhibition (Bygr); for inhibition at 1120 g/ha: 1.12 kg/ha; for inhibition at 11210 g/ha: 11.21 kg/ha
Procedure: as §1, §2, §3, §4

Cocklebur [3] = assay: Pre-emergence herbicide test; conditions: Xanthium strumarium, read-out: % plant inhibition (Cobu); for inhibition at 1120 g/ha: 1.12 kg/ha; for inhibition at 11210 g/ha: 11.21 kg/ha
Procedure: as §1, §2, §3, §4

Downy Brome [4] = assay: Pre-emergence herbicide test; conditions: Bromus tectorum, read-out: % plant inhibition (Dobr); for inhibition at 1120 g/ha: 1.12 kg/ha; for inhibition at 11210 g/ha: 11.21 kg/ha
Procedure: as §1, §2, §3, §4

Indian Mustard [5] = assay: Pre-emergence herbicide test; conditions: Brassica juncea, read-out: % plant inhibition (Inmu); for inhibition at 1120 g/ha: 1.12 kg/ha; for inhibition at 11210 g/ha: 11.21 kg/ha
Procedure: as §1, §2, §3, §4

Morningglory [6] = assay: Pre-emergence herbicide test; conditions: Ipomoea, read-out: % plant inhibition (Mogl); for inhibition at 1120 g/ha: 1.12 kg/ha; for inhibition at 11210 g/ha: 11.21 kg/ha
Procedure: as §1, §2, §3, §4

Seedling johnsongrass [7] = assay: Pre-emergence herbicide test; conditions: Sorghum halepense, read-out: % plant inhibition (Sejg); for inhibition at 1120 g/ha: 1.12 kg/ha; for inhibition at 11210 g/ha: 11.21 kg/ha
Procedure: as §1, §2, §3, §4

Velvetleaf [8] = assay: Pre-emergence herbicide test; conditions: Abutilon theophrasti, read-out: % plant inhibition (Vele); for inhibition at 1120 g/ha: 1.12 kg/ha; for inhibition at 11210 g/ha: 11.21 kg/ha
Procedure: as §1, §2, §3, §4

Wild buckwheat [9] = assay: Pre-emergence herbicide test; conditions: Fallopia convolvulus, read-out: % plant inhibition (Wibw); for inhibition at 1120 g/ha: 1.12 kg/ha; for inhibition at 11210 g/ha: 11.21 kg/ha
Procedure: as §1, §2, §3, §4

Yellow nutsedge [10] = assay: Pre-emergence herbicide test; conditions: Cyperus, read-out: % plant inhibition (Yens); for inhibition at 1120 g/ha: 1.12 kg/ha; for inhibition at 11210 g/ha: 11.21 kg/ha
Procedure: as §1, §2, §3, §4

Annual bluegrass [11] = assay: Post-emergence herbicide test; conditions: read-out: % plant inhibition (Anbg); for inhibition at 1120 g/ha: 1.12 kg/ha; for inhibition at 11210 g/ha: 11.21 kg/ha
From the text: (§5) Topsoil is placed in aluminum pans having holes in the bottom and compacted to a depth of 0.95 to 1.27 cm from the top of the pan. A predetermined number of seeds of each of several dicotyledonous and monocotyledonous annual plant species and/or vegetative propagules for the perennial plant species are placed on the soil and pressed into the soil surface. The seeds and/or vegetative propagules are covered with soil and leveled. The pans are then placed on a bench in the greenhouse and watered from below as needed. After the plants reach the desired age (two to three weeks), each pan, is removed individually to a spraying chamber and sprayed by means of an atomizer, operating at a spray pressure of 170.3 kPa (10 psig) at the application rates noted. In the spray solution is an amount of an emulsifying agent mixture to give a spray solution or suspension which contains about 0.4% by volume of the emulsifier. The spray solution or suspension contains a sufficient amount of the candidate chemical in order to give application rates of the active ingredient corresponding to those shown in Tables 8 and 8A, while applying a total amount of solution or suspension equivalent to 1870 L/Ha (200 gallons/acre). The pans were returned to the greenhouse and watered as before and the injury to the plants as compared to the control is observed at approximately 10-14 days (usually 11 days) and in some instances observed again at 24-28 days (usually 25 days) after spraying. The post-emergent herbicidal activity shown in these tables is the percent inhibition of each plant species.

Barnyardgrass [12] = assay: Post-emergence herbicide test; conditions: Echinochloa crus-galli, read-out: % plant inhibition (Bygr); for inhibition at 1120 g/ha: 1.12 kg/ha; for inhibition at 11210 g/ha: 11.21 kg/ha
From the text: as §5

Cocklebur [13] = assay: Post-emergence herbicide test; conditions: Xanthium strumarium, read-out: % plant inhibition (Cobu); for inhibition at 1120 g/ha: 1.12 kg/ha; for inhibition at 11210 g/ha: 11.21 kg/ha
From the text: as §5

Downy Brome [14] = assay: Post-emergence herbicide test; conditions: Bromus tectorum, read-out: % plant inhibition (Dobr); for inhibition at 1120 g/ha: 1.12 kg/ha; for inhibition at 11210 g/ha: 11.21 kg/ha
From the text: as §5

Indian Mustard [15] = assay: Post-emergence herbicide test; conditions: Brassica juncea, read-out: % plant inhibition (Inmu); for inhibition at 1120 g/ha: 1.12 kg/ha; for inhibition at 11210 g/ha: 11.21 kg/ha
From the text: as §5

Morningglory [16] = assay: Post-emergence herbicide test; conditions: Ipomoea, read-out: % plant inhibition (Mogl); for inhibition at 1120 g/ha: 1.12 kg/ha; for inhibition at 11210 g/ha: 11.21 kg/ha
From the text: as §5

Seedling johnsongrass [17] = assay: Post-emergence herbicide test; conditions: Sorghum halepense, read-out: % plant inhibition (Sejg); for inhibition at 1120 g/ha: 1.12 kg/ha; for inhibition at 11210 g/ha: 11.21 kg/ha
From the text: as §5

Velvetleaf [18] = assay: Post-emergence herbicide test; conditions: Abutilon theophrasti, read-out: % plant inhibition (Vele); for inhibition at 1120 g/ha: 1.12 kg/ha; for inhibition at 11210 g/ha: 11.21 kg/ha
From the text: as §5

Wild buckwheat [19] = assay: Post-emergence herbicide test; conditions: Fallopia convolvulus, read-out: % plant inhibition (Wibw); for inhibition at 1120 g/ha: 1.12 kg/ha; for inhibition at 11210 g/ha: 11.21 kg/ha
From the text: as §5

Yellow nutsedge [20] = assay: Post-emergence herbicide test; conditions: Cyperus, read-out: % plant inhibition (Yens); for inhibition at 1120 g/ha: 1.12 kg/ha; for inhibition at 11210 g/ha: 11.21 kg/ha
From the text: as §5

SMILES | inhibition at 1120 g/ha (Annual bluegrass [1]) | inhibition at 1120 g/ha (Barnyardgrass [2]) | inhibition at 1120 g/ha (Cocklebur [3]) | inhibition at 1120 g/ha (Downy Brome [4]) | inhibition at 1120 g/ha (Indian Mustard [5]) | inhibition at 1120 g/ha (Morningglory [6]) | inhibition at 1120 g/ha (Seedling johnsongrass [7]) | inhibition at 1120 g/ha (Velvetleaf [8]) | inhibition at 1120 g/ha (Wild buckwheat [9]) | inhibition at 1120 g/ha (Yellow nutsedge [10]) | inhibition at 1120 g/ha (Annual bluegrass [11]) | inhibition at 1120 g/ha (Barnyardgrass [12]) | inhibition at 1120 g/ha (Cocklebur [13]) | inhibition at 1120 g/ha (Downy Brome [14]) | inhibition at 1120 g/ha (Indian Mustard [15]) | inhibition at 1120 g/ha (Morningglory [16]) | inhibition at 1120 g/ha (Seedling johnsongrass [17]) | inhibition at 1120 g/ha (Velvetleaf [18]) | inhibition at 1120 g/ha (Wild buckwheat [19]) | inhibition at 1120 g/ha (Yellow nutsedge [20]) | further results
CCOC(=O)C(C)Oc1cc(-c2nn(C)c(C(F)(F)F)c2Cl)c(F)cc1Cl (centres unmarked) [Compound 229, 2-(2-Chloro-5-(4-chloro-1-methyl-5-(trifluoromethyl)-1H-pyrazol-3-yl)-4-fluorophenoxy)propanoic acid, ethyl ester] | 100% | 90% | 90% | 100% | 100% | 100% | 100% | 100% | 100% | 60% | 70% | 100% | 100% | 90% | 100% | 100% | 100% | 100% | 100% | 40% | –
Cn1nc(-c2cc(N)c(Cl)cc2F)c(Cl)c1C(F)F [Compound 178] | 20% | 10% | 20% | 30% | 90% | 50% | 10% | 100% | 100% | 0% | 90% | 70% | 90% | 90% | 70% | 100% | 70% | 100% | 100% | 0% | –
Cc1cc(-c2c(Cl)c(C(F)F)nn2C)c(F)cc1Cl [Compound 64] | – | – | – | – | – | – | – | – | – | – | – | – | – | – | – | – | – | – | – | – | inhibition at 11210 g/ha (Annual bluegrass [1]): 90%; inhibition at 11210 g/ha (Barnyardgrass [2]): 80%; inhibition at 11210 g/ha (Cocklebur [3]): 10%; inhibition at 11210 g/ha (Downy Brome [4]): 90%; inhibition at 11210 g/ha (Indian Mustard [5]): 100%; inhibition at 11210 g/ha (Morningglory [6]): 80%; inhibition at 11210 g/ha (Seedling johnsongrass [7]): 80%; inhibition at 11210 g/ha (Velvetleaf [8]): 100%; inhibition at 11210 g/ha (Wild buckwheat [9]): 100%; inhibition at 11210 g/ha (Yellow nutsedge [10]): 10%; inhibition at 11210 g/ha (Annual bluegrass [11]): 20%; inhibition at 11210 g/ha (Barnyardgrass [12]): 30%; inhibition at 11210 g/ha (Cocklebur [13]): 20%; inhibition at 11210 g/ha (Downy Brome [14]): 0%; inhibition at 11210 g/ha (Indian Mustard [15]): 20%; inhibition at 11210 g/ha (Morningglory [16]): 60%; inhibition at 11210 g/ha (Seedling johnsongrass [17]): 20%; inhibition at 11210 g/ha (Velvetleaf [18]): 60%; inhibition at 11210 g/ha (Wild buckwheat [19]): 80%; inhibition at 11210 g/ha (Yellow nutsedge [20]): 0%
Cc1cc(-c2nn(C)c(C(F)(F)F)c2Cl)c(F)cc1Cl [Compound 124] | – | – | – | – | – | – | – | – | – | – | – | – | – | – | – | – | – | – | – | – | inhibition at 11210 g/ha (Annual bluegrass [1]): 100%; inhibition at 11210 g/ha (Barnyardgrass [2]): 100%; inhibition at 11210 g/ha (Cocklebur [3]): 100%; inhibition at 11210 g/ha (Downy Brome [4]): 100%; inhibition at 11210 g/ha (Indian Mustard [5]): 100%; inhibition at 11210 g/ha (Morningglory [6]): 100%; inhibition at 11210 g/ha (Seedling johnsongrass [7]): 100%; inhibition at 11210 g/ha (Velvetleaf [8]): 100%; inhibition at 11210 g/ha (Wild buckwheat [9]): 100%; inhibition at 11210 g/ha (Yellow nutsedge [10]): 20%; inhibition at 11210 g/ha (Annual bluegrass [11]): 70%; inhibition at 11210 g/ha (Barnyardgrass [12]): 90%; inhibition at 11210 g/ha (Cocklebur [13]): 70%; inhibition at 11210 g/ha (Downy Brome [14]): 50%; inhibition at 11210 g/ha (Indian Mustard [15]): 90%; inhibition at 11210 g/ha (Morningglory [16]): 100%; inhibition at 11210 g/ha (Seedling johnsongrass [17]): 100%; inhibition at 11210 g/ha (Velvetleaf [18]): 100%; inhibition at 11210 g/ha (Wild buckwheat [19]): 100%; inhibition at 11210 g/ha (Yellow nutsedge [20]): 20%
